In PubChem BioAssay AID328 (DTP/NCI, 2004):
Several values for one entry are separate records, joined by “and”; a condition that tells them apart may be missing. Equal entries are not always repeated. Inconclusive results and toxic doses are left out.

Tested on: BDF1 mice, P388 leukemia ip, median survival T/C
Test: NCI In Vivo Anticancer Drug Screen. Data for tumor model P388 Leukemia (intraperitoneal) in B6D2F1 (BDF1) mice
Settings: endpoint: median survival time, higher = longer survival
Outline: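 T/C = treated-group survival ÷ vehicle-control survival; tumour transplanted into mice before dosing.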

[1] = dose: 6.25 mg/kg/injection, schedule: Q01DX009 (ip), vehicle: saline with Tween-80
[2] = dose: 100.0 mg/kg/injection, schedule: Q01DX009 (ip), vehicle: saline
[3] = dose: 100.0 mg/kg/injection, schedule: Q04DX003 (ip), vehicle: saline
[4] = dose: 200.0 mg/kg/injection, schedule: Q01DX009 (ip), vehicle: saline
[5] = dose: 50.0 mg/kg/injection, schedule: Q01DX009 (ip), vehicle: saline
[6] = dose: 12.5 mg/kg/injection, schedule: Q01DX009 (ip), vehicle: saline with Tween-80
[7] = dose: 100.0 mg/kg/injection, schedule: Q04DX003 (ip), vehicle: saline with Tween-80
[8] = dose: 200.0 mg/kg/injection, schedule: Q04DX003 (ip), vehicle: saline with Tween-80
[9] = dose: 400.0 mg/kg/injection, schedule: Q04DX003 (ip), vehicle: saline with Tween-80
[10] = dose: 25.0 mg/kg/injection, schedule: Q01DX009 (ip), vehicle: saline with Tween-80
[11] = dose: 50.0 mg/kg/injection, schedule: Q01DX009 (ip), vehicle: saline with Tween-80
[12] = dose: 100.0 mg/kg/injection, schedule: Q01DX009 (ip), vehicle: saline with Tween-80
[13] = dose: 12.5 mg/kg/injection, schedule: Q01DX009 (ip), vehicle: Klucel (hydroxypropylcellulose) (HPC)
[14] = dose: 25.0 mg/kg/injection, schedule: Q01DX009 (ip), vehicle: Klucel (hydroxypropylcellulose) (HPC)
[15] = dose: 25.0 mg/kg/injection, schedule: Q04DX003 (ip), vehicle: Klucel (hydroxypropylcellulose) (HPC)
[16] = dose: 50.0 mg/kg/injection, schedule: Q01DX009 (ip), vehicle: Klucel (hydroxypropylcellulose) (HPC)
[17] = dose: 50.0 mg/kg/injection, schedule: Q04DX003 (ip), vehicle: Klucel (hydroxypropylcellulose) (HPC)
[18] = dose: 100.0 mg/kg/injection, schedule: Q01DX009 (ip), vehicle: Klucel (hydroxypropylcellulose) (HPC)
[19] = dose: 200.0 mg/kg/injection, schedule: Q01DX009 (ip), vehicle: Klucel (hydroxypropylcellulose) (HPC)
[20] = dose: 200.0 mg/kg/injection, schedule: Q01DX009 (ip), vehicle: saline with Tween-80
[21] = dose: 400.0 mg/kg/injection, schedule: Q01DX009 (ip), vehicle: saline with Tween-80

CN(c1ccccc1)c1c2c(oc(=O)c1Cl)-c1ccccc1SC2
T/C (dose: 1.56 mg/kg/injection, schedule: Q01DX009 (ip), vehicle: saline with Tween-80): 101 % of control | T/C (dose: 3.13 mg/kg/injection, schedule: Q01DX009 (ip), vehicle: saline with Tween-80): 97 % of control | T/C [1]: 91 % of control

O=C(O)C(O)C(O)C(=O)O (stereo unspecified)
T/C [2]: 100 % of control | T/C [3]: 91 % of control | T/C [4]: 110 % of control | T/C (dose: 200.0 mg/kg/injection, schedule: Q04DX003 (ip), vehicle: saline): 100 % of control | T/C (dose: 400.0 mg/kg/injection, schedule: Q01DX009 (ip), vehicle: saline): 100 % of control | T/C (dose: 400.0 mg/kg/injection, schedule: Q04DX003 (ip), vehicle: saline): 104 % of control

Clc1ncnc2nc[nH]c12
T/C (dose: 7.5 mg/kg/injection, schedule: Q01DX010 (ip), vehicle: saline): 92 % of control and 118 % of control | T/C (dose: 15.0 mg/kg/injection, schedule: Q01DX010 (ip), vehicle: saline): 92 % of control and 122 % of control | T/C (dose: 30.0 mg/kg/injection, schedule: Q01DX010 (ip), vehicle: saline): 100 % of control | T/C (dose: 60.0 mg/kg/injection, schedule: Q01DX010 (ip), vehicle: saline): 100 % of control

Clc1ccc(-c2cc(=[N+]3CCOCC3)ss2)cc1
T/C (dose: 12.5 mg/kg/injection, schedule: Q01DX009 (ip), vehicle: water): 118 % of control | T/C (dose: 25.0 mg/kg/injection, schedule: Q01DX009 (ip), vehicle: water): 102 % of control | T/C (dose: 25.0 mg/kg/injection, schedule: Q04DX003 (ip), vehicle: water): 94 % of control | T/C (dose: 50.0 mg/kg/injection, schedule: Q01DX009 (ip), vehicle: water): 111 % of control | T/C (dose: 50.0 mg/kg/injection, schedule: Q04DX003 (ip), vehicle: water): 100 % of control | T/C (dose: 100.0 mg/kg/injection, schedule: Q01DX009 (ip), vehicle: water): 111 % of control | T/C (dose: 100.0 mg/kg/injection, schedule: Q04DX003 (ip), vehicle: water): 90 % of control | T/C (dose: 200.0 mg/kg/injection, schedule: Q04DX003 (ip), vehicle: water): 110 % of control

NC(CO)CSCc1ccccc1 (stereo unspecified)
T/C (dose: 12.5 mg/kg/injection, schedule: Q04DX003 (ip), vehicle: saline): 114 % of control | T/C (dose: 25.0 mg/kg/injection, schedule: Q04DX003 (ip), vehicle: saline): 104 % of control | T/C (dose: 50.0 mg/kg/injection, schedule: Q04DX003 (ip), vehicle: saline): 98 % of control | T/C [3]: 97 % of control

CCCC1CC(C(=O)NC(C(C)Cl)C2OC(SC)C(O)C(O)C2O)N(C)C1 (stereo unspecified)
T/C [5]: 100 % of control | T/C [2]: 94 % of control | T/C [4]: 102 % of control

CC[CH2][Pb]([CH2]CC)([CH2]CC)[O]C(=O)C(Cl)(Cl)Cl
T/C (dose: 3.12 mg/kg/injection, schedule: Q01DX009 (ip), vehicle: saline with Tween-80): 122 % of control | T/C [1]: 121 % of control | T/C [6]: 108 % of control

CC(C)CC(=O)C1=C(O)C(Nc2ccccc2)=CC(=O)C1=Nc1ccccc1
T/C [7]: 106 % of control | T/C [8]: 118 % of control | T/C [9]: 111 % of control

O=C1c2ccccc2C(=O)N1Cc1ccc([N+](=O)[O-])cc1
T/C [6]: 97 % of control | T/C [10]: 96 % of control | T/C [11]: 97 % of control | T/C [12]: 92 % of control

CN(C)C(C#N)c1c[nH]c2ccccc12 (stereo unspecified)
T/C (dose: 6.25 mg/kg/injection, schedule: Q01DX009 (ip), vehicle: Klucel (hydroxypropylcellulose) (HPC)): 105 % of control | T/C (dose: 6.25 mg/kg/injection, schedule: Q04DX003 (ip), vehicle: Klucel (hydroxypropylcellulose) (HPC)): 109 % of control | T/C [13]: 100 % of control | T/C (dose: 12.5 mg/kg/injection, schedule: Q04DX003 (ip), vehicle: Klucel (hydroxypropylcellulose) (HPC)): 100 % of control | T/C [14]: 94 % of control | T/C [15]: 100 % of control

Cc1cc(N(CCCl)CCCl)ccc1C=Nc1cccnc1
T/C [16]: 100 % of control and 113 % of control | T/C [17]: 100 % of control | T/C [18]: 152 % of control | T/C (dose: 100.0 mg/kg/injection, schedule: Q04DX003 (ip), vehicle: Klucel (hydroxypropylcellulose) (HPC)): 95 % of control | T/C [19]: 150 % of control and 156 % of control | T/C (dose: 200.0 mg/kg/injection, schedule: Q04DX003 (ip), vehicle: Klucel (hydroxypropylcellulose) (HPC)): 120 % of control | T/C (dose: 400.0 mg/kg/injection, schedule: Q01DX009 (ip), vehicle: Klucel (hydroxypropylcellulose) (HPC)): 169 % of control and 190 % of control | T/C (dose: 400.0 mg/kg/injection, schedule: Q04DX003 (ip), vehicle: Klucel (hydroxypropylcellulose) (HPC)): 120 % of control

COc1ccc(CCNC(=O)Cc2ccccc2)cc1OC
T/C [12]: 95 % of control | T/C [7]: 109 % of control | T/C [20]: 90 % of control | T/C [8]: 100 % of control | T/C [21]: 100 % of control | T/C [9]: 100 % of control

c1ccc(OCC2CO2)cc1 (stereo unspecified)
T/C [12]: 108 % of control and 118 % of control | T/C [7]: 110 % of control | T/C [20]: 108 % of control and 112 % of control | T/C [8]: 115 % of control | T/C [9]: 110 % of control

Cc1ncc([N+](=O)[O-])n1CCSSCCn1c([N+](=O)[O-])cnc1C
T/C [7]: 118 % of control | T/C [8]: 118 % of control | T/C [9]: 115 % of control

CCC(C)C1(C)OC1C(=O)OC (stereo unspecified)
T/C [20]: 107 % of control | T/C [21]: 107 % of control

CCCCNC1(C#N)CCN(Cc2ccccc2)CC1
T/C (dose: 6.0 mg/kg/injection, schedule: Q04DX003 (ip), vehicle: Klucel (hydroxypropylcellulose) (HPC)): 104 % of control | T/C (dose: 12.0 mg/kg/injection, schedule: Q04DX003 (ip), vehicle: Klucel (hydroxypropylcellulose) (HPC)): 100 % of control | T/C [13]: 100 % of control | T/C [14]: 91 % of control | T/C [15]: 96 % of control and 112 % of control

COc1ccc(NC(=O)Oc2ccc3c(C)cc(=O)oc3c2)c(OC)c1
T/C [20]: 155 % of control | T/C [21]: 100 % of control

CC(=O)/C(C1=NCCC1)=C(/C)O
T/C (dose: 25.0 mg/kg/injection, schedule: Q01DX009 (ip), vehicle: saline): 109 % of control | T/C [5]: 100 % of control | T/C [2]: 100 % of control

CC(C)(O)c1cc(Cl)ccc1Sc1ccccc1
T/C [7]: 105 % of control | T/C [8]: 91 % of control | T/C [9]: 108 % of control

C=CC(=O)NC1CCCCC1
T/C [17]: 90 % of control | T/C (dose: 75.0 mg/kg/injection, schedule: Q04DX003 (ip), vehicle: Klucel (hydroxypropylcellulose) (HPC)): 104 % of control | T/C (dose: 150.0 mg/kg/injection, schedule: Q04DX003 (ip), vehicle: Klucel (hydroxypropylcellulose) (HPC)): 104 % of control

O=S1(=O)CC(Cl)(Br)C1
T/C [16]: 105 % of control | T/C [18]: 114 % of control | T/C [19]: 123 % of control

Cc1ccc(C(O)c2c(C)cc(C)cc2C)c(C)c1 (stereo unspecified)
T/C (dose: 100.0 mg/kg/injection, schedule: Q01DX001 (ip), vehicle: saline with Tween-80): 100 % of control | T/C (dose: 200.0 mg/kg/injection, schedule: Q01DX001 (ip), vehicle: saline with Tween-80): 100 % of control | T/C (dose: 400.0 mg/kg/injection, schedule: Q01DX001 (ip), vehicle: saline with Tween-80): 100 % of control

COc1cc(C=Nc2cc(Cl)cc(Cl)c2)ccc1N(CCCl)CCCl
T/C (dose: 132.0 mg/kg/injection, schedule: Q04DX003 (ip), vehicle: saline with Tween-80): 163 % of control | T/C [8]: 177 % of control | T/C (dose: 300.0 mg/kg/injection, schedule: Q04DX003 (ip), vehicle: saline with Tween-80): 177 % of control

C=CS(=O)(=O)Cc1ccccc1
T/C (dose: 25.0 mg/kg/injection, schedule: Q04DX003 (ip), vehicle: saline with Tween-80): 104 % of control | T/C (dose: 50.0 mg/kg/injection, schedule: Q04DX003 (ip), vehicle: saline with Tween-80): 93 % of control

O=C1NC(=O)C(c2ccc(C(F)(F)F)cc2)(c2ccc(C(F)(F)F)cc2)N1
T/C [6]: 104 % of control | T/C [10]: 90 % of control | T/C [11]: 113 % of control | T/C [7]: 90 % of control | T/C [8]: 90 % of control | T/C [9]: 104 % of control
